According to US20140213513A1 (Sanofi, priority 2012, published 2014):
*1 amine or outer side, *2 acyl side, *3 side chain or, on linkers, in order; H or OH if unused. Where a SMILES comes first, the peptide text is derived from it. Side-chain parts run from the residue outwards. [ ]: non-standard residue; d: D form. The star is where a group is joined. γGlu = O=C(O)[C@H](CCC(=O)[*:2])N[*:1]; Palmitoyl = CCCCCCCCCCCCCCCC(=O)*; Aib = CC(C)(N)C(=O)O

Key:
Type in all cases: cell-based
Conditions in all cases: Table 7; cAMP formation
[1] = biological target: T1, human GIP receptor (hGIP R) (Homo sapiens, UniProt P48546); assay: cAMP response of HEK-293 cells stably expressing human GIP receptor (HTRF)
T1 construct: expressed in transfected cells
T1 sequence (P48546 22-466): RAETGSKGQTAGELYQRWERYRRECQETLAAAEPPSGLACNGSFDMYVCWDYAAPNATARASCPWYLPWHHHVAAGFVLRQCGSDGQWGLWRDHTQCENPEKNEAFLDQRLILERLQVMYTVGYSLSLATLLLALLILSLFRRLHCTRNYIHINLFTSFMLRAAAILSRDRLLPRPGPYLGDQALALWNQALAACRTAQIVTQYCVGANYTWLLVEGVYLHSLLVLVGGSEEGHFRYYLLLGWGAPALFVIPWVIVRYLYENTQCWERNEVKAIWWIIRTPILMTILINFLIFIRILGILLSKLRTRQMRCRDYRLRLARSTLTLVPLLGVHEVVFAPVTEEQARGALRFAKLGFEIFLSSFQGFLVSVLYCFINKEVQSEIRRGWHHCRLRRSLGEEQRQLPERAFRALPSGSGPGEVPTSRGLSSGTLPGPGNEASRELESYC
Procedure, shortened: (§1)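 Cells grown overnight in DMEM/10% FBS, detached with accutase, resuspended in HBSS with 20 mM HEPES, 0.1% BSA and 2 mM IBMX at 400000 cells/ml. Test compound added and incubated 30 minutes at room temperature; cellular cAMP then measured by HTRF.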

[2] = biological target: T2, human GLP-1 receptor (hGLP-1 R) (Homo sapiens, UniProt P43220); assay: cAMP response of HEK-293 cells stably expressing human GLP-1 receptor (HTRF)
T2 construct: expressed in transfected cells
Procedure, shortened: as §1

[3] = biological target: T3, human glucagon receptor (hGLUC R) (Homo sapiens, UniProt P47871); assay: cAMP response of HEK-293 cells stably expressing human glucagon receptor (HTRF)
T3 construct: expressed in transfected cells
Procedure, shortened: as §1

T3 sequence (P47871 26-477): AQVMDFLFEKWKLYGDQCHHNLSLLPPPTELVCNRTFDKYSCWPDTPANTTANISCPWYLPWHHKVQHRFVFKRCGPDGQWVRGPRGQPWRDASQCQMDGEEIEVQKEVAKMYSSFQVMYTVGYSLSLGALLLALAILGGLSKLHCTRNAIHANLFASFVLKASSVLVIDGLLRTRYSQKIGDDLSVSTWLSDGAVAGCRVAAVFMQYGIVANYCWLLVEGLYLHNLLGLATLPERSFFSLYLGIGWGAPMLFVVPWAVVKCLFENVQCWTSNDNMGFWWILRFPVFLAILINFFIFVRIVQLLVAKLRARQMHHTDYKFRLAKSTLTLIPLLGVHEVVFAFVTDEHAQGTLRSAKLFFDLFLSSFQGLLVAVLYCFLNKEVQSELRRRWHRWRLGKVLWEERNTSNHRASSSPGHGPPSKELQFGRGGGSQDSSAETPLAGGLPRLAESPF
T2 sequence (P43220 24-463): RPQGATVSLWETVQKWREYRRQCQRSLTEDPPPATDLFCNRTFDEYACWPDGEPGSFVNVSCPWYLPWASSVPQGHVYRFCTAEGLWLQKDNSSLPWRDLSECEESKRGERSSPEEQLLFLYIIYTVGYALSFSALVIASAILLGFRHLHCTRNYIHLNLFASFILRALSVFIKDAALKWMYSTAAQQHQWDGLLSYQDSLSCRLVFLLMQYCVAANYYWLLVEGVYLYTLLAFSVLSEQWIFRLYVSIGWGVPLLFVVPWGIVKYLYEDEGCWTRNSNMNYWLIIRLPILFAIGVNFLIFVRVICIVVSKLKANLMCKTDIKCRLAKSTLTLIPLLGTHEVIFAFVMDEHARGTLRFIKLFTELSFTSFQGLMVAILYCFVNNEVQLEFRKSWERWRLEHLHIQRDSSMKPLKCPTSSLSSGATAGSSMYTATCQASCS

Row | Structure (SMILES) | EC50 [1] | EC50 [2] | EC50 [3]
1 | CCCCCCCCCCCCCCCC(=O)N[C@@H](CCC(=O)NCCCC[C@H](NC(=O)[C@H](CCC(N)=O)NC(=O)[C@H](CCCCN)NC(=O)[C@H](CO)NC(=O)[C@H](CC(C)C)NC(=O)[C@H](CC(=O)O)NC(=O)[C@H](CO)NC(=O)[C@@H](NC(=O)[C@H](Cc1ccccc1)NC(=O)[C@@H](NC(=O)CNC(=O)[C@H](CCC(N)=O)NC(=O)C(C)(C)NC(=O)[C@@H](N)Cc1ccc(O)cc1)[C@@H](C)O)[C@@H](C)O)C(=O)N[C@@H](CC(=O)O)C(=O)N[C@@H](CO)C(=O)N[C@@H](CCCNC(=N)N)C(=O)N[C@@H](C)C(=O)N[C@@H](C)C(=O)N[C@@H](CCC(N)=O)C(=O)N[C@@H](CC(=O)O)C(=O)N[C@@H](Cc1ccccc1)C(=O)N[C@H](C(=O)N[C@@H](CCC(=O)O)C(=O)N[C@@H](Cc1c[nH]c2ccccc12)C(=O)N[C@@H](CC(C)C)C(=O)N[C@@H](CCCCN)C(=O)N[C@@H](C)C(=O)NCC(=O)NCC(=O)N1CCC[C@H]1C(=O)N[C@@H](CO)C(=O)N[C@@H](CO)C(=O)NCC(=O)N[C@@H](C)C(=O)N1CCC[C@H]1C(=O)N1CCC[C@H]1C(=O)N1CCC[C@H]1C(=O)N[C@@H](CO)C(N)=O)[C@@H](C)CC)C(=O)O [SEQ ID NO: 66, Y-Aib-Q-G-T-F-T-S-D-L-S-K-Q-K(yE-x53)-DSRAAQDFIEWLKAGGPSSGAPPPS-NH2] (H-Y[Aib]QGTFTSDLSKQK([γGlu-Palmitoyl])DSRAAQDFIEWLKAGGPSSGAPPPS-NH2) | 0.0826 nM | 0.0036 nM | 0.0052 nM
2 | CCCCCCCCCCCCCCCC(=O)N[C@@H](CCC(=O)NCCCC[C@H](NC(=O)[C@H](CCC(N)=O)NC(=O)[C@@H](NC(=O)[C@H](CO)NC(=O)[C@H](CC(C)C)NC(=O)[C@H](CC(=O)O)NC(=O)[C@H](CO)NC(=O)[C@@H](NC(=O)[C@H](Cc1ccccc1)NC(=O)[C@@H](NC(=O)CNC(=O)[C@H](CCC(N)=O)NC(=O)C(C)(C)NC(=O)[C@@H](N)Cc1ccc(O)cc1)[C@@H](C)O)[C@@H](C)O)[C@@H](C)CC)C(=O)N[C@@H](CCC(=O)O)C(=O)N[C@@H](CCCCN)C(=O)N[C@@H](CCCNC(=N)N)C(=O)N[C@@H](C)C(=O)N[C@@H](C)C(=O)N[C@@H](CC(C)C)C(=O)N[C@@H](CCC(=O)O)C(=O)N[C@@H](Cc1ccccc1)C(=O)N[C@H](C(=O)N[C@@H](CCC(=O)O)C(=O)N[C@@H](Cc1c[nH]c2ccccc12)C(=O)N[C@@H](CC(C)C)C(=O)N[C@@H](CCCCN)C(=O)N[C@@H](CC(N)=O)C(=O)N[C@H](C(=O)NCC(=O)N1CCC[C@H]1C(=O)N[C@@H](CO)C(=O)N[C@@H](CO)C(=O)NCC(=O)N[C@@H](C)C(=O)N1CCC[C@H]1C(=O)N1CCC[C@H]1C(=O)N1CCC[C@H]1C(=O)N[C@@H](CO)C(N)=O)[C@@H](C)O)[C@@H](C)CC)C(=O)O [SEQ ID NO: 33, Y-Aib-Q-G-T-F-T-S-D-L-S-I-Q-K(yE-x53)-EKRAALEFIEWLKNTGPSSGAPPPS-NH2] (H-Y[Aib]QGTFTSDLSIQK([γGlu-Palmitoyl])EKRAALEFIEWLKNTGPSSGAPPPS-NH2) | 0.0882 nM | 0.0081 nM | 0.109 nM
